Measured values reported in publication PMC7531004, “Discovery of gramicidin A analogues with altered activities by multidimensional screening of a one-bead-one-compound library” (Nature Communications, 2020).
Where a SMILES comes first, the peptide text is derived from it. [ ]: non-standard residue; d: D form. The star is where a group is joined. NHCH2CH2OH = OCCN*; For = O=C*

Experiments:
[1] = tested on: P388 mouse leukemia cells; conditions: 92 h
Outline: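 P388 cells at 1 × 10^4 cells/mL (final) were exposed to library peptides (stocks diluted 250-fold in RPMI1640/10% FBS) for 92 h at 37 °C, 5% CO2. Viable cells were counted by WST-1/1-methoxy PMS (4 h), absorbance 415 nm, and expressed as cell viability (%).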

[2] = tested on: Streptococcus pyogenes SSI-9; assay: Antibacterial activity assay of bead-derived peptides (three concentrations); assay type: cell-based; design: key: +++: inhibition by the 640-fold diluted peptide solution; ++: inhibition by the 160-fold diluted solution; +: inhibition by the 40-fold diluted solution; -: no inhibition; conditions: S. pyogenes, bead-derived peptide solution, three concentrations
Outline: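 Undiluted, 4-fold and 16-fold DMSO-diluted peptide stocks; S. pyogenes SSI-9, 2 × 10^5 CFU, cation-adjusted MHB (50 mg/L Ca2+, 25 mg/L Mg2+) + 5% laked horse blood; 37 °C, 18 h; readout = cell pellet visible or not.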

[3] = H+/Na+ transport assay of bead-derived peptides (one-point); assay type: biochemical; design: key: relative activity; mean of two control wells = 1.00; conditions: bead-derived peptide solution, EYPC/EYPG LUVs;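 further: relative to parent gramicidin A activity set to 1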
Outline: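 H+/Na+ transport is monitored through pyranine fluorescence in freshly extruded LUVs after a 30-min room-temperature vortex with each library peptide at a single concentration. Signals are normalized to detergent (Triton X-100) and untreated controls.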

Question: With `CC(C)C[C@@H](NC(=O)[C@H](C)NC(=O)[C@H](NC(=O)[C@H](C)NC(=O)CNC(=O)[C@@H](NC=O)C(C)C)C(C)C)C(=O)N[C@H](C(=O)N[C@@H](C(=O)N[C@@H](Cc1c[nH]c2ccccc12)C(=O)N[C@@H](C(=O)N[C@@H](Cc1c[nH]c2ccccc12)C(=O)N[C@@H](C(=O)N[C@@H](Cc1c[nH]c2ccccc12)C(=O)N[C@H](CC(C)C)C(=O)N[C@@H](Cc1c[nH]c2ccccc12)C(=O)NCCO)C(C)C)C(C)C)[C@H](C)O)C(C)C` [compound 4395] (For-VGA[dV]A[dL]V[dT]W[dV]W[dV]W[dL]W-NHCH2CH2OH) as the compound, how does the cell viability/% [1] read?
Answer: The cell viability/% was 100.0%.

Question: And the antibacterial activity [2]?
Answer: The antibacterial activity was “-”.

Question: What about the “H+/Na+ transport activity normalized against the value of 1 (1.00)” value (from here on “H+/Na+ transport activity normalized”) [3] of the same compound?
Answer: Its value is 1.07.

Question: Which results are given for `CNC(=O)C[C@@H](NC(=O)[C@@H](NC(=O)[C@@H](CC(C)C)NC(=O)[C@H](C)NC(=O)[C@@H](CC(C)C)NC(=O)[C@H](C)NC(=O)CNC(=O)[C@@H](NC=O)C(C)C)C(C)C)C(=O)N[C@@H](Cc1c[nH]c2ccccc12)C(=O)N[C@H](CC(C)C)C(=O)N[C@@H](Cc1c[nH]c2ccccc12)C(=O)N[C@H](CC(C)C)C(=O)N[C@@H](Cc1c[nH]c2ccccc12)C(=O)N[C@@H](C(=O)N[C@@H](Cc1c[nH]c2ccccc12)C(=O)NCCO)[C@H](C)O` [compound 3929] (For-VGA[dL]A[dL]V[dD](NHMe)W[dL]W[dL]W[dT]W-NHCH2CH2OH)?
Answer: cell viability/% [1]: 100.0%; antibacterial activity [2]: -; H+/Na+ transport activity normalized against the value of 1 (1.00) [3]: 1.14

Question: Which results are given for `CNC(=O)C[C@@H](NC(=O)[C@@H](NC(=O)[C@@H](CC(C)C)NC(=O)[C@H](C)NC(=O)[C@H](NC(=O)[C@H](C)NC(=O)CNC(=O)[C@@H](NC=O)C(C)C)C(C)C)C(C)C)C(=O)N[C@@H](Cc1c[nH]c2ccccc12)C(=O)N[C@@H](C(=O)N[C@@H](Cc1c[nH]c2ccccc12)C(=O)N[C@H](CC(C)C)C(=O)N[C@@H](Cc1c[nH]c2ccccc12)C(=O)N[C@H](CC(C)C)C(=O)N[C@@H](Cc1c[nH]c2ccccc12)C(=O)NCCO)C(C)C` [compound 12975] (For-VGA[dV]A[dL]V[dD](NHMe)W[dV]W[dL]W[dL]W-NHCH2CH2OH)?
Answer: cell viability/% [1]: 86.0%; antibacterial activity [2]: -; H+/Na+ transport activity normalized against the value of 1 (1.00) [3]: 1.43

Question: Which cell viability/% [1] does the source give for `CC(C)C[C@@H](NC(=O)[C@H](Cc1c[nH]c2ccccc12)NC(=O)[C@H](NC(=O)[C@H](Cc1c[nH]c2ccccc12)NC(=O)[C@@H](CC(C)C)NC(=O)[C@H](Cc1c[nH]c2ccccc12)NC(=O)[C@H](NC(=O)[C@@H](NC(=O)[C@H](NC(=O)[C@H](C)NC(=O)[C@H](NC(=O)[C@H](C)NC(=O)CNC(=O)[C@@H](NC=O)C(C)C)C(C)C)C(C)C)C(C)C)C(C)C)C(C)C)C(=O)N[C@@H](Cc1c[nH]c2ccccc12)C(=O)NCCO` [compound 9293] (For-VGA[dV]A[dV]V[dV]W[dL]W[dV]W[dL]W-NHCH2CH2OH) here?
Answer: The cell viability/% was 4.3%.

Question: What about the antibacterial activity [2] of the same compound?
Answer: The antibacterial activity was “++”.

Question: What about the “H+/Na+ transport activity normalized” value [3] of the same compound?
Answer: Its value is 1.05.

Question: What does the source list for `CC(C)C[C@@H](NC(=O)[C@H](C)NC(=O)CNC(=O)[C@@H](NC=O)C(C)C)C(=O)N[C@@H](C)C(=O)N[C@H](CC(C)C)C(=O)N[C@H](C(=O)N[C@@H](C(=O)N[C@@H](Cc1c[nH]c2ccccc12)C(=O)N[C@@H](C(=O)N[C@@H](Cc1c[nH]c2ccccc12)C(=O)N[C@@H](C(=O)N[C@@H](Cc1c[nH]c2ccccc12)C(=O)N[C@H](CC(C)C)C(=O)N[C@@H](Cc1c[nH]c2ccccc12)C(=O)NCCO)[C@H](C)O)C(C)C)C(C)C)C(C)C` [compound 6876] (For-VGA[dL]A[dL]V[dV]W[dV]W[dT]W[dL]W-NHCH2CH2OH)?
Answer: cell viability/% [1]: 100.0%; antibacterial activity [2]: -; H+/Na+ transport activity normalized against the value of 1 (1.00) [3]: 1.13

Question: Which cell viability/% [1] does the source give for `CC(C)C[C@@H](NC(=O)[C@@H](NC(=O)[C@H](NC(=O)[C@H](C)NC(=O)[C@H](NC(=O)[C@H](C)NC(=O)CNC(=O)[C@@H](NC=O)C(C)C)[C@H](C)O)C(C)C)C(C)C)C(=O)N[C@@H](Cc1c[nH]c2ccccc12)C(=O)N[C@@H](C(=O)N[C@@H](Cc1c[nH]c2ccccc12)C(=O)N[C@@H](C(=O)N[C@@H](Cc1c[nH]c2ccccc12)C(=O)N[C@@H](C(=O)N[C@@H](Cc1c[nH]c2ccccc12)C(=O)NCCO)C(C)C)C(C)C)C(C)C` [compound 3631] (For-VGA[dT]A[dV]V[dL]W[dV]W[dV]W[dV]W-NHCH2CH2OH) here?
Answer: The cell viability/% was 100.0%.

Question: What about the antibacterial activity [2] of the same compound?
Answer: The antibacterial activity was “-”.

Question: And the “H+/Na+ transport activity normalized” value [3]?
Answer: Its value is 1.02.

Question: Which cell viability/% [1] does the source give for `CC(C)C[C@@H](NC(=O)[C@H](Cc1c[nH]c2ccccc12)NC(=O)[C@H](NC(=O)[C@H](Cc1c[nH]c2ccccc12)NC(=O)[C@@H](CC(C)C)NC(=O)[C@H](Cc1c[nH]c2ccccc12)NC(=O)[C@H](NC(=O)[C@@H](NC(=O)[C@H](NC(=O)[C@H](C)NC(=O)[C@H](NC(=O)[C@H](C)NC(=O)CNC(=O)[C@@H](NC=O)C(C)C)C(C)C)C(C)C)C(C)C)C(C)C)[C@H](C)O)C(=O)N[C@@H](Cc1c[nH]c2ccccc12)C(=O)NCCO` [compound 1849] (For-VGA[dV]A[dV]V[dV]W[dL]W[dT]W[dL]W-NHCH2CH2OH) here?
Answer: Its cell viability/% is 100.0%.

Question: What about the antibacterial activity [2] of the same compound?
Answer: Its antibacterial activity is “+”.

Question: And the “H+/Na+ transport activity normalized” value [3]?
Answer: The value was 1.07.

Question: Which results are given for `CC(C)C[C@@H](NC(=O)[C@H](C)NC(=O)[C@H](NC(=O)[C@H](C)NC(=O)CNC(=O)[C@@H](NC=O)C(C)C)C(C)C)C(=O)N[C@H](C(=O)N[C@@H](C(=O)N[C@@H](Cc1c[nH]c2ccccc12)C(=O)N[C@H](CC(C)C)C(=O)N[C@@H](Cc1c[nH]c2ccccc12)C(=O)N[C@@H](C(=O)N[C@@H](Cc1c[nH]c2ccccc12)C(=O)N[C@@H](C(=O)N[C@@H](Cc1c[nH]c2ccccc12)C(=O)NCCO)C(C)C)C(C)C)C(C)C)C(C)C` [compound 6888] (For-VGA[dV]A[dL]V[dV]W[dL]W[dV]W[dV]W-NHCH2CH2OH)?
Answer: cell viability/% [1]: 78.6%; antibacterial activity [2]: +; H+/Na+ transport activity normalized against the value of 1 (1.00) [3]: 1.23

Question: What does the source list for `CC(C)C[C@@H](NC(=O)[C@H](C)NC(=O)[C@H](NC(=O)[C@H](C)NC(=O)CNC(=O)[C@@H](NC=O)C(C)C)[C@H](C)O)C(=O)N[C@H](C(=O)N[C@H](CC(C)C)C(=O)N[C@@H](Cc1c[nH]c2ccccc12)C(=O)N[C@@H](C(=O)N[C@@H](Cc1c[nH]c2ccccc12)C(=O)N[C@H](CC(C)C)C(=O)N[C@@H](Cc1c[nH]c2ccccc12)C(=O)N[C@@H](C(=O)N[C@@H](Cc1c[nH]c2ccccc12)C(=O)NCCO)C(C)C)[C@H](C)O)C(C)C` [compound 3437] (For-VGA[dT]A[dL]V[dL]W[dT]W[dL]W[dV]W-NHCH2CH2OH)?
Answer: cell viability/% [1]: 100.0%; antibacterial activity [2]: -; H+/Na+ transport activity normalized against the value of 1 (1.00) [3]: 1.01

Question: For `CC(C)C[C@@H](NC(=O)[C@H](C)NC(=O)CNC(=O)[C@@H](NC=O)C(C)C)C(=O)N[C@@H](C)C(=O)N[C@@H](C(=O)N[C@H](C(=O)N[C@@H](C(=O)N[C@@H](Cc1c[nH]c2ccccc12)C(=O)N[C@@H](C(=O)N[C@@H](Cc1c[nH]c2ccccc12)C(=O)N[C@H](CC(C)C)C(=O)N[C@@H](Cc1c[nH]c2ccccc12)C(=O)N[C@@H](C(=O)N[C@@H](Cc1c[nH]c2ccccc12)C(=O)NCCO)C(C)C)C(C)C)C(C)C)C(C)C)C(C)C` [compound 11438] (For-VGA[dL]A[dV]V[dV]W[dV]W[dL]W[dV]W-NHCH2CH2OH), which cell viability/% [1] is on record?
Answer: The cell viability/% was 100.0%.

Question: What about the antibacterial activity [2] of the same compound?
Answer: Its antibacterial activity is “++”.

Question: What about the “H+/Na+ transport activity normalized” value [3] of the same compound?
Answer: The value was 1.18.

Question: Which results are given for `CC(C)C[C@@H](NC(=O)[C@H](C)NC(=O)[C@H](NC(=O)[C@H](C)NC(=O)CNC(=O)[C@@H](NC=O)C(C)C)C(C)C)C(=O)N[C@H](C(=O)N[C@@H](C(=O)N[C@@H](Cc1c[nH]c2ccccc12)C(=O)N[C@@H](C(=O)N[C@@H](Cc1c[nH]c2ccccc12)C(=O)N[C@@H](C(=O)N[C@@H](Cc1c[nH]c2ccccc12)C(=O)N[C@@H](C(=O)N[C@@H](Cc1c[nH]c2ccccc12)C(=O)NCCO)C(C)C)C(C)C)C(C)C)C(C)C)C(C)C` [compound 13030] (For-VGA[dV]A[dL]V[dV]W[dV]W[dV]W[dV]W-NHCH2CH2OH)?
Answer: cell viability/% [1]: 99.9%; antibacterial activity [2]: +; H+/Na+ transport activity normalized against the value of 1 (1.00) [3]: 1.42

Question: For `CC(C)C[C@@H](NC(=O)[C@H](Cc1c[nH]c2ccccc12)NC(=O)[C@H](NC(=O)[C@H](Cc1c[nH]c2ccccc12)NC(=O)[C@H](NC(=O)[C@H](Cc1c[nH]c2ccccc12)NC(=O)[C@@H](CC(C)C)NC(=O)[C@@H](NC(=O)[C@H](NC(=O)[C@H](C)NC(=O)[C@H](NC(=O)[C@H](C)NC(=O)CNC(=O)[C@@H](NC=O)C(C)C)[C@H](C)O)C(C)C)C(C)C)C(C)C)C(C)C)C(=O)N[C@@H](Cc1c[nH]c2ccccc12)C(=O)NCCO` [compound 2532] (For-VGA[dT]A[dV]V[dL]W[dV]W[dV]W[dL]W-NHCH2CH2OH), which cell viability/% [1] is on record?
Answer: The cell viability/% was 100.0%.

Question: And the antibacterial activity [2]?
Answer: Its antibacterial activity is “-”.

Question: And the “H+/Na+ transport activity normalized” value [3]?
Answer: The value was 1.22.

Question: What does the source list for `CC(C)C[C@@H](NC(=O)[C@H](C)NC(=O)CNC(=O)[C@@H](NC=O)C(C)C)C(=O)N[C@@H](C)C(=O)N[C@@H](C(=O)N[C@H](C(=O)N[C@@H](C(=O)N[C@@H](Cc1c[nH]c2ccccc12)C(=O)N[C@H](CC(C)C)C(=O)N[C@@H](Cc1c[nH]c2ccccc12)C(=O)N[C@H](CC(C)C)C(=O)N[C@@H](Cc1c[nH]c2ccccc12)C(=O)N[C@@H](C(=O)N[C@@H](Cc1c[nH]c2ccccc12)C(=O)NCCO)C(C)C)[C@H](C)O)C(C)C)C(C)C` [compound 6702] (For-VGA[dL]A[dV]V[dT]W[dL]W[dL]W[dV]W-NHCH2CH2OH)?
Answer: cell viability/% [1]: 100.0%; antibacterial activity [2]: +; H+/Na+ transport activity normalized against the value of 1 (1.00) [3]: 1.03
